Assay [1] deals with U-251 MG human glioblastoma cells. In words: In vitro cell viability assay. The format is cell-based. Conditions: 125 µM, 24 hours incubation; for Antitumor activity on U-251 MG cell viability (in words): compared with compound 7 (ABC294640).
The test system of a further assay is SphK2. Conditions: cited from earlier work.
Another assay deals with SphK1. Conditions: read-out: SphK1 IC50; cited from earlier work.
A further assay deals with T1, recombinant human SphK2 (Homo sapiens, UniProt Q9NRA0).
T1 sequence (Q9NRA0 1-654): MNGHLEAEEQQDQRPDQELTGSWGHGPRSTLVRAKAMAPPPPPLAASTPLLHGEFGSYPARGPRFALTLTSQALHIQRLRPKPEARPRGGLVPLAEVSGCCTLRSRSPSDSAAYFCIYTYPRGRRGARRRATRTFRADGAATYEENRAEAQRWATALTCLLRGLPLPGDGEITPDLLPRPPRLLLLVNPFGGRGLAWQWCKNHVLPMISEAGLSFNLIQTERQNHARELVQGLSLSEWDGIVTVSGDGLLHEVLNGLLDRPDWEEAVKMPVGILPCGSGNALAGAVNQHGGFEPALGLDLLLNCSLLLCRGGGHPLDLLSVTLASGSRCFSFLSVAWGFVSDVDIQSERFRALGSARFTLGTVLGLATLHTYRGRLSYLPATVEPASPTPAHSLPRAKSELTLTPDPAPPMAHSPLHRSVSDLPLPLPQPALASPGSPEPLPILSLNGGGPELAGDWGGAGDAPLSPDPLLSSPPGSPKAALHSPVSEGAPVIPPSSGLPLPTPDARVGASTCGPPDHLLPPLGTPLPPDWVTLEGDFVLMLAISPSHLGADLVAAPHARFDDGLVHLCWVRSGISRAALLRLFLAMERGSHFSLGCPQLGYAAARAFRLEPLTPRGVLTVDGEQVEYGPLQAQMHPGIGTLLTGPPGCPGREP
In words: ADP-Glo kinase assay, SphK2. Conditions: comparison of SphK1 and SphK2 activity at 125 µM compound (Fig. 5). For orientation: In ADP-Glo the light output rises with the ADP produced.

Consider 16 compounds from PMC8781238 (European journal of medicinal chemistry, 2020).

The structures appear in SMILES notation. Entries after “also recorded” stand apart in the source; their conditions may differ. Bounds are passed on as bounds.

The term IC50 denotes the concentration that inhibits the measured activity by half. On to `O=C(NCc1ccncc1)C12CC3CC(C1)CC(c1ccc(Cl)cc1)(C3)C2` [Compound 7], for which the “Reduction of cell viability of U-251 MG cells” value in assay [1] is reported as “approximately 50%”. The half-inhibitory concentration (IC50) is roughly 60 µM in the assay on SphK2 (read-out: SphK2 IC50) and no less than 100 µM in the assay on SphK1. By Ki is commonly meant the equilibrium dissociation constant of an inhibitor or competing ligand from its target. On to `N=C(N)N1CCC[C@H]1Cc1nc(-c2ccc(Nc3nc(-c4cccc(C(F)(F)F)c4)cs3)cc2)no1` [Compound 13], for which the Ki at SphK2 (read-out: SphK2 Ki) was 0.09 µM. `Cl.N=C(N)N1CCC[C@H]1Cc1nc(-c2ccc(Cn3cc(-c4ccccc4)nn3)cc2)no1` [Compound 21a, (S)-2-((3-(4-((4-Phenyl-1H-1,2,3-triazol-1-yl)methyl)phenyl)-1,2,4-oxadiazol-5yl)methyl)pyrrolidine-1-carboximidamide hydrochloride]: the “Antitumor activity on U-251 MG cell viability (in words)” value (from here on “Antitumor activity”) in assay [1] is “highest anti-tumor activity; also recorded: strongest antitumor activity”. As to `Cl.N=C(N)N1CCC[C@H]1Cc1nc(-c2ccc(Cn3cc(-c4ccc(C(F)(F)F)cc4)nn3)cc2)no1` [Compound 21b, (S)-2-((3-(4-((4-(4-(Trifluoromethyl)phenyl)-1H-1,2,3-triazol-1-yl)methyl)phenyl)-1,2,4-oxadiazol-5-yl)methyl)-pyrrolidine-1-carboximidamide hydrochloride], the “Selectivity/specificity for SphK2 over SphK1 (in words)” value (“Selectivity/specificity for SphK2” for short) at recombinant human SphK2 is “lowest specificity; also recorded: no selective”. In assay [1], the “Antitumor activity” value is listed as “highest anti-tumor activity; also recorded: strongest antitumor activity”.

In the case of `Cl.N=C(N)N1CCC[C@H]1Cc1nc(-c2ccc(Cn3cc(-c4ccccn4)nn3)cc2)no1` [Compound 21c, (S)-2-((3-(4-((4-(Pyridin-2-yl)-1H-1,2,3-triazol-1-yl)methyl)phenyl)-1,2,4-oxadiazol-5-yl)methyl)pyrrolidine-1-carboximidamide hydrochloride], the “Selectivity/specificity for SphK2” value at recombinant human SphK2 was “high selectivity; also recorded: highest specificity”. On the same count and under the same terms, in the case of `CCCCc1cn(Cc2ccc(-c3noc(C[C@@H]4CCCN4C(=N)N)n3)cc2)nn1.Cl` [Compound 21d, (S)-2-((3-(4-((4-Butyl-1H-1,2,3-triazol-1-yl)methyl)phenyl)-1,2,4-oxadiazol-5-yl)methyl)pyrrolidine-1-carboximidamide hydrochloride] it was “lowest specificity; also recorded: no selective”.

For the compound `COc1ccc(-c2cn(Cc3ccc(-c4noc(C[C@@H]5CCCN5C(=N)N)n4)cc3)nn2)cc1.Cl` [Compound 21e, (S)-2-((3-(4-((4-(4-Methoxyphenyl)-1H-1,2,3-triazol-1-yl)methyl)phenyl)-1,2,4-oxadiazol-5-yl)methyl)pyrrolidine-1-carboximidamide hydrochloride], the “Selectivity/specificity for SphK2” value at recombinant human SphK2 is “high selectivity; also recorded: highest specificity”. Besides, the “Antitumor activity” value in assay [1] is listed as “comparable reduction of viability”.

As to `Cl.N=C(N)N1CCC[C@H]1Cc1nc(-c2ccc(Cn3cc(C4CC4)nn3)cc2)no1` [Compound 21f, (S)-2-((3-(4-((4-Cyclopropyl-1H-1,2,3-triazol-1-yl)methyl)phenyl)-1,2,4-oxadiazol-5-yl)methyl)pyrrolidine-1-carboximidamide hydrochloride], the “Selectivity/specificity for SphK2” value at recombinant human SphK2 was “lowest specificity; also recorded: no selective”. As to `Cl.Cn1cc(-c2cn(Cc3ccc(-c4noc(C[C@@H]5CCCN5C(=N)N)n4)cc3)nn2)cn1` [Compound 21g, (S)-2-((3-(4-((4-(1-Methyl-1H-pyrazol-4-yl)-1H-1,2,3-triazol-1-yl)methyl)phenyl)-1,2,4-oxadiazol-5-yl)methyl)pyrrolidine-1-carboximidamide hydrochloride], on recombinant human SphK2, the “Selectivity/specificity for SphK2” value is “high selectivity; also recorded: highest specificity”.

For the compound `Cl.N=C(N)N1CCC[C@H]1c1nc(-c2ccc(Cn3cc(-c4ccc(C(F)(F)F)cc4)nn3)cc2)no1` [Compound 25b], in assay [1], the “Antitumor activity” value is given as “highest anti-tumor activity; also recorded: tremendously decrease the viability; also recorded: strongest antitumor activity; also recorded: higher antitumor activity”. For the compound `Cl.N=C(N)N1CCC[C@H]1c1nc(-c2ccc(Cn3cc(-c4ccccn4)nn3)cc2)no1` [Compound 25c, (S)-2-(3-(4-((4-(Pyridin-2-yl)-1H-1,2,3-triazol-1-yl)methyl)phenyl)-1,2,4-oxadiazol-5-yl)pyrrolidine-1-carboximidamide hydrochloride], the “Selectivity/specificity for SphK2” value on recombinant human SphK2 is recorded as “lowest specificity”.

`COc1ccc(-c2cn(Cc3ccc(-c4noc([C@@H]5CCCN5C(=N)N)n4)cc3)nn2)cc1.Cl` [Compound 25d]: in assay [1], the “Antitumor activity” value is on record as “comparable reduction of viability”. For `CCCCc1cn(Cc2ccc(-c3noc([C@@H]4CCCN4C(=N)N)n3)cc2)nn1.Cl` [Compound 25f], the “Selectivity/specificity for SphK2” value at recombinant human SphK2 is reported as “high selective”. `Cl.N=C(N)N1CCC[C@H]1c1nc(-c2ccc(Cn3cc(C4CC4)nn3)cc2)no1` [Compound 25h]: the “Selectivity/specificity for SphK2” value at recombinant human SphK2 is recorded as “high selective”. In the case of `Cl.N=C(N)C1(c2nc(-c3ccc(Cn4cc(-c5ccccc5)nn4)cc3)no2)CC1` [Compound 29a, 1-(3-(4-((4-Phenyl-1H-1,2,3-triazol-1-yl)methyl)phenyl)-1,2,4-oxadiazol-5-yl)cyclopropanecarboximidamide hydrochloride], on recombinant human SphK2, the “Selectivity/specificity for SphK2” value is “highly selective”. Still for that read-out and setting: in the case of `Cl.Cn1cc(-c2cn(Cc3ccc(-c4noc(C5(C(=N)N)CC5)n4)cc3)nn2)cn1` [Compound 29b] it was “highly selective”.
